The results in this text go back to US9057929B2, “Quinolinium single crystals for use in nonlinear optics” (AJOU UNIVERSITY INDUSTRY-ACADEMIC COOPERATION FOUNDATION, priority 2011, dated 2015).

One series can be described thus: Solubility in methanol. The text has this: Meanwhile, the solubility in methanol of the quinolinium derivative according to the present invention is illustrated in (a) of FIG. 6. […] The solid line in the graph is based on the known Van't Hoff thermodynamic equilibrium equation using an ideal solution.
Series [1] can be described thus: Thermal properties by DSC and TGA at a scanning rate of 10° C./min (thermal weight-loss temperature Ti). It is filed as physicochemical. The following applies: for Ti (thermal weight-loss temperature), second number of the Tm/Ti cell: intercept of leading edge of weight loss with baseline. As for the experimental part: As results of measurement of thermal properties of the quinolinium derivative according to the present invention using differential scanning calorimetry (DSC) and thermogravimetric analysis (TGA) at a scanning rate of 10° C./min, the thermal weight-loss temperature Ti was estimated as a temperature at the intercept of the leading edge of the weight loss by the baseline of TGA scans.

Where two headings read alike, the source gives them in different places.

As to `COc1cc(C=Cc2ccc3ccccc3[n+]2C)ccc1O.[I+]` [HMQ-I, 2-(4-hydroxy-3-methoxystyryl)-1-methylquinolinium iodine], the “solubility in methanol as a reaction solvent” value in the series “Solubility in methanol” (methanol, temperature not given) is 0.14 g/100 g methanol.

“2-(4-hydroxy-3-methoxystyryl)-1-methylquinolinium 4-methoxylbenzenesulfonate [HMQ-MBS]”: in “Solubility in methanol”, the solubility in methanol amounted to 0.56 g/100 g methanol. For the same compound, the “Ti (thermal weight-loss temperature), second number of the Tm/Ti cell” value (shortened to “Ti (thermal weight-loss temperature)”) in series [1] (TGA, 10° C./min) is 265/291 °C.

As to `CN(C)c1ccc(C=Cc2cc[n+](C)cc2)cc1.Cc1ccc(S(=O)(=O)[O-])cc1` [DAST, N,N-dimethylamino-N′-methylstilbazolium 4-methylbenzenesulfonate, reference compound], in series [1] (TGA, 10° C./min), the “thermal stability of the crystal (FIG. 2)” value came out at 260 °C and the “Ti (thermal weight-loss temperature)” value is 250/250 °C.

Take `COc1cc(C=Cc2ccc3ccccc3[n+]2C)ccc1O.Cc1ccc(S(=O)(=O)[O-])cc1` [HMQ-T, 2-(4-hydroxy-3-methoxystyryl)-1-methylquinolinium 4-methylbenzenesulfonate]: the solubility in methanol in the series “Solubility in methanol” is given as 0.89 g/100 g methanol. Also, the “thermal stability of the crystal (FIG. 2)” value in series [1] is “exceeding 290 °C”. Also, in series [1] (TGA, 10° C./min), the “Ti (thermal weight-loss temperature)” value was 273/297 °C.

For the compound `CC1(C)CC(C=Cc2ccc(O)cc2)=CC(=C(C#N)C#N)C1` [OH1, 2-(3-(4-hydroxystyryl)-5,5-dimethylcyclohex-2-enylidene)malononitrile, reference compound], the “Ti (thermal weight-loss temperature)” value in series [1] (TGA, 10° C./min) is 212/325 °C.
